The source made the active and inactive calls.
Tests used:
Vero = test: cells; assay type: functional, cell-based; details: Chlorocebus sabaeus
[1] = target: T1, Tyrosine-protein phosphatase non-receptor type 22 (Homo sapiens, UniProt Q9Y2R2); assay type: functional
T1 sequence (Q9Y2R2 whole entry): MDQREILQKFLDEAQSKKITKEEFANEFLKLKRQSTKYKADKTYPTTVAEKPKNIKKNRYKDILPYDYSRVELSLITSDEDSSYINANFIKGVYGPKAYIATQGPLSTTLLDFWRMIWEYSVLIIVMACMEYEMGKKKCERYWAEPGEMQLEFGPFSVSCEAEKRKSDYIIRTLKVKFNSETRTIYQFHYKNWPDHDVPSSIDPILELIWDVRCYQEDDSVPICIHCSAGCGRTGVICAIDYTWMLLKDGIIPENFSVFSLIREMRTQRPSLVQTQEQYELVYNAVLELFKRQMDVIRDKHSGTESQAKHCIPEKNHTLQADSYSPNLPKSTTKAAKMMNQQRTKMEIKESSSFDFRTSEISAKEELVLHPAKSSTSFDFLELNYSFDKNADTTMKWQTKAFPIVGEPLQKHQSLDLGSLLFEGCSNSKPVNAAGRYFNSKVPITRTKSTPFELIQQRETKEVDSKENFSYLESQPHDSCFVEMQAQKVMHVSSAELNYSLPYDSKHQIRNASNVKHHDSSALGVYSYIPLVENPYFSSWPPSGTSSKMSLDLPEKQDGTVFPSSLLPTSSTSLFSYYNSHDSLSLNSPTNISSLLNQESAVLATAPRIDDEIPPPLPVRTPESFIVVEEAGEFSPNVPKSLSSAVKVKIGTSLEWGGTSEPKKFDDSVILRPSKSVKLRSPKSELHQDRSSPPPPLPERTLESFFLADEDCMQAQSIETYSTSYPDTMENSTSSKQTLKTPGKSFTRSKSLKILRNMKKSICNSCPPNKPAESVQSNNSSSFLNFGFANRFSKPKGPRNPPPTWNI

[2] = target: T1, Tyrosine-protein phosphatase non-receptor type 22; assay type: functional; remark: listed apart in the source
[3] = target: T2, Tyrosine-protein phosphatase non-receptor type 7 (Homo sapiens, UniProt P35236); assay type: functional
T2 sequence (P35236 whole entry): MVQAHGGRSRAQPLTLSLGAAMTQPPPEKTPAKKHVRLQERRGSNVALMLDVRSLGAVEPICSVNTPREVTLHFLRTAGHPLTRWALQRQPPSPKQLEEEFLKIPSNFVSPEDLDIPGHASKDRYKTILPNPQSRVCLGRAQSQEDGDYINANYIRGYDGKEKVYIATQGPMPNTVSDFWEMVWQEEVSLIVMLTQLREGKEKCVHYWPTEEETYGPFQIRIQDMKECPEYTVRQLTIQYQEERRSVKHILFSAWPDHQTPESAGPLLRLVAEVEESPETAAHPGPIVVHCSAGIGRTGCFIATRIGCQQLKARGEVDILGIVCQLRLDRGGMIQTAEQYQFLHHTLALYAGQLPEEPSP

[4] = target: T3, Kappa-type opioid receptor (Homo sapiens, UniProt P41145); assay type: functional
T3 sequence (P41145 whole entry): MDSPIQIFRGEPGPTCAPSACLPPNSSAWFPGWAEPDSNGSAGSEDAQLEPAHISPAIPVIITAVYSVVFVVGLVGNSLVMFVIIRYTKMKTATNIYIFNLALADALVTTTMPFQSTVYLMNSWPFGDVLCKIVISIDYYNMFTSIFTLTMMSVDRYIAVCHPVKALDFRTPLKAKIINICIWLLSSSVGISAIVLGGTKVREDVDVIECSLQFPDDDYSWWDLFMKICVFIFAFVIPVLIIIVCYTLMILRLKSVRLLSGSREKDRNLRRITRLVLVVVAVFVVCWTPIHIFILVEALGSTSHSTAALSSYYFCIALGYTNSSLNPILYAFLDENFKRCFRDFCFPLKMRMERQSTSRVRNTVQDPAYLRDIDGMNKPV

[5] = target: T4, Delta-type opioid receptor (Homo sapiens, UniProt P41143); test: HTS Image-Based Screen for Antagonists of the DOR Receptor. [Related pubchem assays (depositor defined):AID1777, AID1785, AID1786, AID2133]; assay type: functional
T4 sequence (P41143 whole entry): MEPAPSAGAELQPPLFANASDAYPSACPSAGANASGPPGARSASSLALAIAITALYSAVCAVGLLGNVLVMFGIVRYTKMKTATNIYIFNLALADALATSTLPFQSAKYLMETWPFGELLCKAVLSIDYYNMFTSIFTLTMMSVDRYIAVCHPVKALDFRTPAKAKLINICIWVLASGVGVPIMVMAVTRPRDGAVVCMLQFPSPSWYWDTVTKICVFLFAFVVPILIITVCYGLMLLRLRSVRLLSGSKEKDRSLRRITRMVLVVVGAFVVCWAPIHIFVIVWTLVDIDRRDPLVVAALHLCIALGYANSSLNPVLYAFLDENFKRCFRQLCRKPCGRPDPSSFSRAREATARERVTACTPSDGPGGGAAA

[6] = target: T4, Delta-type opioid receptor; test: HTS Image-Based Screen for Agonists of the DOR Receptor. [Related pubchem assays (depositor defined):AID1777, AID1786, AID2133]; assay type: functional
[7] = target: T5, Corticotropin-releasing factor receptor 2/Corticotropin-releasing factor-binding protein (Homo sapiens, UniProt P24387+Q13324); test: activators of CRF receptor 2 with binding protein – uHTS hits, confirmation (AID 602473); assay type: functional; details: read-out: EC50_Mean
T5 sequence (Q13324 whole entry): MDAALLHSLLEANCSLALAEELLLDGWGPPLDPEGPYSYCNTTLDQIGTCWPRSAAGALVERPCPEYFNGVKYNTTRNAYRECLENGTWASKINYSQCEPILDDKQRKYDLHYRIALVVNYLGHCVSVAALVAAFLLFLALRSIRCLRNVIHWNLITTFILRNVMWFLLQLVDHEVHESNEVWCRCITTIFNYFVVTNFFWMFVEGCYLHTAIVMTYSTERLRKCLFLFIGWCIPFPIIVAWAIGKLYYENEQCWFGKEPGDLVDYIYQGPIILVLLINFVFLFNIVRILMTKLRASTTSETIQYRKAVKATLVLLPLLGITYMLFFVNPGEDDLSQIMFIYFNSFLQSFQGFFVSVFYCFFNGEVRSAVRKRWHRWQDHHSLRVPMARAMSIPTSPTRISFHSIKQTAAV
T5 sequence (P24387 whole entry): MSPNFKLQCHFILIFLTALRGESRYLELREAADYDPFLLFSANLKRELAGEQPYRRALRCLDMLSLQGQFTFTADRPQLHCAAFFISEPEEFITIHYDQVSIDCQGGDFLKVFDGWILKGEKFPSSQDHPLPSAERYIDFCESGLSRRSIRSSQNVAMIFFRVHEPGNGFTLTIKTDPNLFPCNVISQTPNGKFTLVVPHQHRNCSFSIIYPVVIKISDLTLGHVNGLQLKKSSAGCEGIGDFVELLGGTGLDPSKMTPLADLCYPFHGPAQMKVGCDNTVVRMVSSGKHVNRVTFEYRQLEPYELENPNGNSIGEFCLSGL

[8] = target: T3, Kappa-type opioid receptor; assay type: functional; remark: listed apart in the source
Mu-type opioid receptor = Mu-type opioid receptor (Homo sapiens, UniProt P35372); test: HTS Image-Based Screen for Agonists of the MOR Receptor. [Related pubchem assays (depositor defined):AID1777, AID1785, AID1786, AID2133]; assay type: functional;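 further: imaging of beta-arrestin GFP recruitment into spots after receptor activation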
Chain of Mu-type opioid receptor (P35372 whole entry): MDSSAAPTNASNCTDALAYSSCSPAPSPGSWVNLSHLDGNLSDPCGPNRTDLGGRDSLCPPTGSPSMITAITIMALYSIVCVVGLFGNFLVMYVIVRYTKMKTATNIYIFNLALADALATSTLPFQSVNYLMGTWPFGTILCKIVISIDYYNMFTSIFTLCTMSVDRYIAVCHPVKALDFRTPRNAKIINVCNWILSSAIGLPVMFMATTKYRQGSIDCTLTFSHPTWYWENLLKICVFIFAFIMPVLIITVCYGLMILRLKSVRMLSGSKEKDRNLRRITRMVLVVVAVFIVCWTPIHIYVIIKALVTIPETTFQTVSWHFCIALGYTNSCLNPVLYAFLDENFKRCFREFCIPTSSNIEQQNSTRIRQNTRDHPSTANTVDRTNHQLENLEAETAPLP

Caspase-6 = target: T6, Caspase-6 (Homo sapiens, UniProt P55212); test: inhibition of CASP6 peptide cleavage – biochemical, VEID-R110 fluorescence, cherry-pick, dose response (AID 720632)
T6 sequence (P55212 whole entry): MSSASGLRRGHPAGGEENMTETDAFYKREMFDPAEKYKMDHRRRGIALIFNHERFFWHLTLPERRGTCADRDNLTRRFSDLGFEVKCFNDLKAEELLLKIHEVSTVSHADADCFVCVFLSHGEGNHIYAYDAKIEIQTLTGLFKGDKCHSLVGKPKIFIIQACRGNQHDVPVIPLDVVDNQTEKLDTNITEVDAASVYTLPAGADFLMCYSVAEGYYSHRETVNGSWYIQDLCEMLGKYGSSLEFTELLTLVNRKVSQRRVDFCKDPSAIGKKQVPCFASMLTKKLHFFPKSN

[9] = target: Intestinal-type alkaline phosphatase (Homo sapiens, UniProt P09923); test: inhibition of human intestinal alkaline phosphatase – biochemical, dose response (AID 488876); assay type: functional
Chain of Intestinal-type alkaline phosphatase (Homo sapiens, UniProt P09923) (P09923 whole entry): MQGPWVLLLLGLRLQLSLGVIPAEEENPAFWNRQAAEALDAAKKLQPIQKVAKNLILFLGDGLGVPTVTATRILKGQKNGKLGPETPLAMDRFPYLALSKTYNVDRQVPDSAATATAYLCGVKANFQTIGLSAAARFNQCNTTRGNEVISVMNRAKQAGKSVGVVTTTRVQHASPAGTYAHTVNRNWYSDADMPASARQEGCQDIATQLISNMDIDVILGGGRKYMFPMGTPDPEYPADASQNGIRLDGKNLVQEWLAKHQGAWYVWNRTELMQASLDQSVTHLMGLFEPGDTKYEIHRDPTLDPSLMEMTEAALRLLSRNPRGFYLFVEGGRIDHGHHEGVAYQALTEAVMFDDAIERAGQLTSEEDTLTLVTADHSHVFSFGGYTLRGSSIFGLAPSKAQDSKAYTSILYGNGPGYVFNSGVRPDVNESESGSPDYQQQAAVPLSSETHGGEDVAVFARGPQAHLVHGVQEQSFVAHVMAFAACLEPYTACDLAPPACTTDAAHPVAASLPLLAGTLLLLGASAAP

[10] = target: T7, Dual specificity protein phosphatase 3 (Homo sapiens, UniProt P51452); test: VHR1 phosphatase inhibitors, primary screen, biochemical, absorbance, uHTS (AID 1654)
T7 sequence (P51452 whole entry): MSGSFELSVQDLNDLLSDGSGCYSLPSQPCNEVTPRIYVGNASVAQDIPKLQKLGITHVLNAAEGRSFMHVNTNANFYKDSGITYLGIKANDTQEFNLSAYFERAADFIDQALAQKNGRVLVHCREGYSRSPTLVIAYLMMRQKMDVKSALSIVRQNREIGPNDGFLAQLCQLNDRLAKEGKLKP

[11] = target: T7, Dual specificity protein phosphatase 3; test: VHR1 phosphatase inhibitors, biochemical (AID 1878)
[12] = target: T8, Small ubiquitin-related modifier 2 (Homo sapiens, UniProt P61956); test: disruption of SUMO2 interaction with SIM peptide – biochemical, fluorescence polarization, uHTS hits, selectivity assay for SUMO1 interaction inhibitor project, dose response (AID 624385); assay type: functional; details: read-out: IC50_Mean
T8 sequence (P61956 whole entry): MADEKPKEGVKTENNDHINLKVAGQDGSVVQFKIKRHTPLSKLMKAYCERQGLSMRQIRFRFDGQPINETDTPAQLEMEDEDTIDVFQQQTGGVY

[13] = target: T9, Small ubiquitin-related modifier 1 (Homo sapiens, UniProt P63165); test: SUMO1 protein-protein binding blockers, potency – biochemical, FRET, dose response (AID 624383); assay type: functional; details: read-out: IC50_Mean
T9 sequence (P63165 whole entry): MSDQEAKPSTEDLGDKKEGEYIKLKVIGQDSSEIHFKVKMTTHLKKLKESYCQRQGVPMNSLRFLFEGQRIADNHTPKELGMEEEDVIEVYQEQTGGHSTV

Albumin = Albumin (Bos taurus, UniProt P02769); test: Counterscreen for inhibitors of T-cell receptor (TCR)-CD3 interaction: Fluorescence-based biochemical high throughput dose response assay to identify inhibitors of T-cell receptor (TCR)-CD3 interaction using a TAMRA-labeled BSA probe.; assay type: functional
Chain of Albumin (P02769 whole entry): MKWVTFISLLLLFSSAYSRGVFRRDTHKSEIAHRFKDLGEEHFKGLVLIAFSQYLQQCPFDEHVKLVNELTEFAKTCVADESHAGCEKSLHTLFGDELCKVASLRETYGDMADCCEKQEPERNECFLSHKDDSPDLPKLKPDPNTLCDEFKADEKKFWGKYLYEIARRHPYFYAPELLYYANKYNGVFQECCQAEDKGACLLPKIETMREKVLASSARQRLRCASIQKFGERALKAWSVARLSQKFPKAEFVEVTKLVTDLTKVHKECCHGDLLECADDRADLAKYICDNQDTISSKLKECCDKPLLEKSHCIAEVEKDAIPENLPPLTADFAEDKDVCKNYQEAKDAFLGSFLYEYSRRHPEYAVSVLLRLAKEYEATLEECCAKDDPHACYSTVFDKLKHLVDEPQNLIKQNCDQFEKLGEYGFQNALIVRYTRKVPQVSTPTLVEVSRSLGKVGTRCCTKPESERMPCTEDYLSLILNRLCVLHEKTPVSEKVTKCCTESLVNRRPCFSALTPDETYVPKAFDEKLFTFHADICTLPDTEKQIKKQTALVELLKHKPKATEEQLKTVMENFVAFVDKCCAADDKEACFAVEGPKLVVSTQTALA

[14] = target: T10, Dual specificity protein phosphatase 6 (Rattus norvegicus, UniProt Q64346); test: inhibition of rat DUSP6 enzyme activity – biochemical, in vitro, primary screen (AID 425)
T10 sequence (Q64346 whole entry): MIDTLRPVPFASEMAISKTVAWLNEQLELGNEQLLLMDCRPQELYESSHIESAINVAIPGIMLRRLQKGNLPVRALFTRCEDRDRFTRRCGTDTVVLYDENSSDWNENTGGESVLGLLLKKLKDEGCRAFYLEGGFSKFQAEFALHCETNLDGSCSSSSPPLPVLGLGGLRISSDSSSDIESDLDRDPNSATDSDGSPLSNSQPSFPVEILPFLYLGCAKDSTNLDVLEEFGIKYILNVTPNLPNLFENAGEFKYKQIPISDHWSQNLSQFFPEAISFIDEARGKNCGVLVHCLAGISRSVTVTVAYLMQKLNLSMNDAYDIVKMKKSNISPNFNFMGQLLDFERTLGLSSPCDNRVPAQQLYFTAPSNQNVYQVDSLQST

[15] = target: DNA (cytosine-5)-methyltransferase 1 (Homo sapiens, UniProt P26358); test: inhibition of DNA methylation by DNMT1 – biochemical, fluorescent molecular beacon, confirmation (AID 602386); assay type: functional
Chain of DNA (cytosine-5)-methyltransferase 1 (P26358 whole entry): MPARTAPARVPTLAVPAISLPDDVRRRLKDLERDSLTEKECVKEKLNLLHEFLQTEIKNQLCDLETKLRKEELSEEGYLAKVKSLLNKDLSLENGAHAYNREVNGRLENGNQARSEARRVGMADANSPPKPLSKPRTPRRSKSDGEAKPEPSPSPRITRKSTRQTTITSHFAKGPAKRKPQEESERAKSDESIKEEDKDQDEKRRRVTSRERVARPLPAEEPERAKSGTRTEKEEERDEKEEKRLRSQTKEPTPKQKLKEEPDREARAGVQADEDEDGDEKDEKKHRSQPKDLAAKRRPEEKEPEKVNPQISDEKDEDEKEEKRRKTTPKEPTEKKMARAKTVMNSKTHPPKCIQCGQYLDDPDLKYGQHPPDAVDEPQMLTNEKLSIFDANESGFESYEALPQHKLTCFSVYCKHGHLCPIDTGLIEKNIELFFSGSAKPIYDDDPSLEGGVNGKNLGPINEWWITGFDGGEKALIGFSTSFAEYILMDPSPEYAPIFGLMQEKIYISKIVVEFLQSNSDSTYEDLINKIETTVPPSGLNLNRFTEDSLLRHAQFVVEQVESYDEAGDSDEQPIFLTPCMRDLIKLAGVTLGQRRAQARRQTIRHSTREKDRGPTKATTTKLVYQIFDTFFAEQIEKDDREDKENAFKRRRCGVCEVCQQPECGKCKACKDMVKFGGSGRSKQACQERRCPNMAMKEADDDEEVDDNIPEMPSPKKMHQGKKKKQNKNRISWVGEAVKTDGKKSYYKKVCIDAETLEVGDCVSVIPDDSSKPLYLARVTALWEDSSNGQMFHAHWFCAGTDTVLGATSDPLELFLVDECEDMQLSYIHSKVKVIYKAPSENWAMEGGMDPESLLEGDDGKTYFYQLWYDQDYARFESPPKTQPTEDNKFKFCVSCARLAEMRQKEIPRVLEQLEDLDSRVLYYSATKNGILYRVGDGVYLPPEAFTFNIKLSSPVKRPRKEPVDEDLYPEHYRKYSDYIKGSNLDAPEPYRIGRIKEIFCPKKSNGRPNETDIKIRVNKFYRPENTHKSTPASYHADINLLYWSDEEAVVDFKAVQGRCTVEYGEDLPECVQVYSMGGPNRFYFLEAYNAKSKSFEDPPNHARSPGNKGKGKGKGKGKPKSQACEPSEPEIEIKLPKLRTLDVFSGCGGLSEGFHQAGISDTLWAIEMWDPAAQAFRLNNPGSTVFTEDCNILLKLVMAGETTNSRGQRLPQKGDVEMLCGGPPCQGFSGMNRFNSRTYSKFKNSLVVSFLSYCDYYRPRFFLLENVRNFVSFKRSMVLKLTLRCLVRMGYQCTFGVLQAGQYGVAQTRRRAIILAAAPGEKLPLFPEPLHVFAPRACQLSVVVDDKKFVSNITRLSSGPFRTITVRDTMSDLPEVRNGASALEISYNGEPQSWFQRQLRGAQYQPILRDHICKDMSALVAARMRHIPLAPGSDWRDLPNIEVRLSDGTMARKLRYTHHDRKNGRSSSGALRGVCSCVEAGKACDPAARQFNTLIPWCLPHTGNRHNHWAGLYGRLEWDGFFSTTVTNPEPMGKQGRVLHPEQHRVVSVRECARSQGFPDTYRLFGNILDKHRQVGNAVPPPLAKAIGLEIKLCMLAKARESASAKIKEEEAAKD

[16] = target: T9, Small ubiquitin-related modifier 1; test: SUMO1 protein interaction blockers, potency – biochemical, fluorescence polarization, uHTS hits, dose response (AID 624382); assay type: functional; details: read-out: IC50_Mean
[17] = viability loss in THP-1 monocytes – THP-1 cells, cytotoxicity control for Vif-APOBEC3G degradation inhibitor project, dose response (AID 1117359); assay type: functional; details: THP-1
[18] = target: Intestinal-type alkaline phosphatase (Mus musculus, UniProt P24822); test: PubChem AID 488785; assay type: functional
Chain of Intestinal-type alkaline phosphatase (Mus musculus, UniProt P24822) (P24822 whole entry): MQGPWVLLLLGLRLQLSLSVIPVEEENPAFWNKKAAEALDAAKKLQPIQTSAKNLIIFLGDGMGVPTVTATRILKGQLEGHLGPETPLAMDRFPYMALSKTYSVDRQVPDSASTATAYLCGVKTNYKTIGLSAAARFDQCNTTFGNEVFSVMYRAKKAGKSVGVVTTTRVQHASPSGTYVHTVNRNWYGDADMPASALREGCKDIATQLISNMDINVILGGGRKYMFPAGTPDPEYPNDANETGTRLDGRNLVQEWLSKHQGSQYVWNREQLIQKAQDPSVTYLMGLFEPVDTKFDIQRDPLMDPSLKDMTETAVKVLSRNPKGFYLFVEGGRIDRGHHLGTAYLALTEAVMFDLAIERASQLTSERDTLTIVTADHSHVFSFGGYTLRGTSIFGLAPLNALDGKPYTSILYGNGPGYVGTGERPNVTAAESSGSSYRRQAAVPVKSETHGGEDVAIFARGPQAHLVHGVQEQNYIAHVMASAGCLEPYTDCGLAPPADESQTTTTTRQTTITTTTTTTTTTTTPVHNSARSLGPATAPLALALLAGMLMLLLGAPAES

[19] = target: T8, Small ubiquitin-related modifier 2; test: SUMO2 binding disruption by SUMO1 hits – biochemical, FRET, human SUMO2, uHTS hits, selectivity assay for SUMO1 interaction inhibitor project, dose response (AID 624384); assay type: functional; details: read-out: IC50_Mean
[20] = target: T11, Alkaline phosphatase, tissue-nonspecific isozyme (Homo sapiens, UniProt P05186); test: TNAP enzyme inhibition by screening hits, dose response, selectivity assay for mouse IAP inhibitor project, biochemical, human TNAP, uHTS hits (AID 488906); assay type: functional
T11 sequence (P05186 whole entry): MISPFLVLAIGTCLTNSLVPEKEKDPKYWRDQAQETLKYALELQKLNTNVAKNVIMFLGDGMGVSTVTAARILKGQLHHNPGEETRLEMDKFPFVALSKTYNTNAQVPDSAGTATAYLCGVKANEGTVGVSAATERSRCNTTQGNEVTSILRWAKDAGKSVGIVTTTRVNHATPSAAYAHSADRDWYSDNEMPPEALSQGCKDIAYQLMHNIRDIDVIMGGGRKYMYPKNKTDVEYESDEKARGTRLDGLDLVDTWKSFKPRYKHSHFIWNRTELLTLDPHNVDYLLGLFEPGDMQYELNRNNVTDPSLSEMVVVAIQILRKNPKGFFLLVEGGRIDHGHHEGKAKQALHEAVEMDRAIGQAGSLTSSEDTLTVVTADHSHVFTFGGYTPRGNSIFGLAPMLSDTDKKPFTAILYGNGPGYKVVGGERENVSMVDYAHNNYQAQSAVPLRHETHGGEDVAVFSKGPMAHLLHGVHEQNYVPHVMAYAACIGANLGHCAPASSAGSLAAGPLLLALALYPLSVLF

## N#C/C(=C\c1c(Oc2ccccc2Cl)nc2ccccn2c1=O)C(=O)NC1CCS(=O)(=O)C1 (centres undefined)
Vero
  IC50: > 25 µM (active)

## Cc1ccc(C)n1-c1ccc(-c2cc[nH]n2)cc1
[1]
  IC50: > 79.4 µM (inactive)
[2]
  IC50: > 79.4 µM (inactive)
[3]
  IC50: > 79.4 µM (inactive)

## O=C(c1ccc([N+](=O)[O-])cc1)N(Cc1ccc(Cl)cc1)N1C(=O)CCCC1=O
[4]
  EC50: > 35 µM
[5]
  IC50: > 32 µM (inactive)
[6]
  EC50: > 32 µM (inactive)
[7]
  EC50: 0.709 µM (active)
[8]
  EC50: 5.66 µM
Mu-type opioid receptor
  EC50: > 32 µM (inactive)

## O=C(N/N=C/c1cn(Cc2cccc(F)c2)c2ccccc12)c1cc(O)cc(O)c1
Caspase-6
  AC50: 0.461 µM (active)
[9]
  IC50: > 100 µM (inactive)
[10]
  IC50: 4.76 µM (active)
[11]
  IC50: 2.08 µM (active)
[12]
  IC50: 50.6 µM (inactive)
[13]
  IC50: 6.82 µM (active)
Albumin
  IC50: > 94.1 µM (inactive)
[14]
  IC50: 74.4 µM (active)
[15]
  IC50: 2.39 µM (active)
[16]
  IC50: 10.3 µM (active)
[17]
  CC50: > 40 µM (active)
[18]
  IC50: 2.7 µM (active)
[19]
  IC50: 2.49 µM (active)
[20]
  IC50: > 100 µM (inactive)
